# Reference: patent publication EP1311486B1, “USES OF THALIPORPHINE OR ITS DERIVATIVES IN TREATMENT OF CARDIAC DISEASES AND PREPARATION OF SAME” (Lotus Pharmaceutical Co., Ltd., priority 2000, dated 2002)
# Values joined by “and” are separate entries in the source; they are usually repeats but may differ in a detail not shown here. Equal values may be shown once. Marks after values point to notes of the source that are not given here.
# Tests used:
# AV node conduction = assay: His bundle electrogram of isolated heart, Langendorff perfusion, atrial pacing at 300 ms cycle length; design: species or system rats and guinea pigs; details: for atrial effective refractory period (AERP): before drug THP 60 ms, quinidine 40 ms; for ventricular effective refractory period (VERP): before drug THP 160 ms, quinidine 180 ms; for AV node effective refractory period (AVNERP): before drug THP 170 ms, quinidine 130 ms; for wenckbach cycle length (WCL): before drug THP 200 ms, quinidine 150 ms
# Method: The investigation conforms to the Guide for the Care and Use of Laboratory Animals published by the US National Institutes of Health (NIH publication No. 85-23, revised 1996). Adult rats and guinea pigs were killed after hepariniation and anesthetization with urethane (1.25 g/kg i.p.). After isolating the heart, the aorta was perfused with 10µM quinidine and THP, respectively, by Langendorff perfusion. A pair of bipolar electrodes connected with silver wire were placed on the tip of the Triangle of Koch to record the His bundle electrogram. In addition, another pair of bipolar electrodes connected with silver wire were placed on the surface of the right ventricle to record T wave. […] The QT interval, conduction time through the sinoatrial (SA interval), the atrioventricular node (AH interval) and His-purkinje system (HV interval) were recorded, respectively, using electrocardiograph. Similarly, the recovery curve of His-purkinje system (i.e. the relationship of H2V2 and V1H2), atrial and ventricular refractory period and AV node refractory period were also recorded in the same manner. 1 and 2.
# The SA, AH, HV intervals and T wave are prolonged in the quinidine-treated heart (FIG. 1). […] In addition, 3, 10 and 30µM THP can prolong the atrial effective refractory period (AERP) from 60 ms to 90, 100 and 120 ms, respectively; the ventricular effective refractory period (VERP) from 160 ms to 160, 170 and 190 ms, respectively; and the AV node effective refractory period (AVNERP) from 170 ms to 170, 200 and 240 ms, respectively. When compared with THP in the same manner, 3,10 and 30µM quinidine can prolong the AERP from 40 ms to 60, 80 and 130 ms; the VERP from 180 ms to 170, 180 and 190 ms; and the AVNERP from 130 ms to 150, 200 and 245 ms, respectively. Further, 3, 10 and 30µM THP can change the wenckbach cycle length (WCL) from 200 ms to 210, 230 and 280 ms, respectively; whereas 3, 10 and 30µM quinidine can change the WCL from 150 ms to 170, 210 and 300 ms, respectively. Both THP and quinidine prolong AERP, VERP and AVNERP, however, only quinidine inhibits conduction in AV node (prolonged AH interval). In contrast, even when the THP concentration raised to 10µM, the conduction in AV node is not inhibited.
# in vivo anesthetized rat = assay: Reperfusion-induced arrhythmias in the anesthetized rat (5 minutes ischemia, 30 minutes reperfusion)
# Method: Myocardial ischemia was performed by a temporary tightening of the silk ligature around the left main coronary artery. Reperfusion was achieved by releasing the tension applied to the ligature (operated groups). Sham operated animals underwent all surgical procedures, apart from the fact that the silk, passing around the left coronary artery, was not tied (sham groups). Animals were infused with a bolus of THP (3.5x10^-7, 3.5x10^-6, 3.5x10^-5 g/kg), L-NAME (N^∞-nitro-L-arginine methyl ester; 1x10^-3 g/kg) or vehicle (dimethyl sulfoxide/ NaCl 0.9%, 1:10^3; v/v) from a jugular vein 15 minutes before coronary occlusion. The coronary artery was occluded for 30 minutes or 5 minutes followed by 30 minutes reperfusion and with the animals then divided randomly in the following groups: (1) sham + vehicle; (2) sham + THP (3.5x10^-5g/kg); (3) operated + vehicle; (4) operated + THP (3.5x10^-7 g/kg); (5) operated + THP (3.5x10^-6 g/kg); (6) operated + THP (3.5x10^-5 g/kg); (7) operated + L-NAME (1x10^-3 g/kg) + THP (3.5x10^-5 g/kg). Before and during the ischemia or reperfusion period, heart rate (HR), blood pressure (BP) and ECG changes were recorded. Ventricular ectopic activity was evaluated according to the diagnostic criteria advocated in the Lambeth Convention. The incidence and duration of ventricular tachyarrhythmias, including ventricular tachycardia (VT) and ventricular fibrillation (VF), in surviving animals was determined. The Mann-Whitney rank-sum test was used to analyze the differences in the duration of VT and VF between vehicle and drug treated groups. The BP and HR changes between vehicle and drug treated rats in the arrhythmia study were analyzed by ANOVA (analysis of variance) followed by Bonferroni's test. The difference in the percentage incidence of VT, VF and mortality rate was analyzed with a Chi-square test. Table 2 Effect of THP on ischemia-induced arrhythmias in the in vivo anesthetized rat
# The severity of reperfusion induced-arrhythmias is critically dependent upon the duration of the preceding period of ischemia. Thus, the protocol of a 5 minutes period of ischemia followed by a 30 minutes period of reperfusion is selected for producing the highest incidence of rhythm disturbance. […] In contrast, animals pretreated with THP (3.5x10^-6 and 3.5x10^-5 g/kg), experienced a drastic reduction in the incidence of VF from 88% to 29% and 13% (p<0.05) and the duration of VF from 92.4±20.5 seconds to 9.2±8.3 and 1.2±1.2 seconds (p<0.05). The mortality rate also decreases from 75% to 0% by 3.5x10^-6 g/kg THP (p<0.05). However, L-NAME coadministration only partially antagonizes the antiarrhythmic activity and mortality prevention effect of thaliporphine (3.5x10^-5 g/kg).
# isolated rat hearts = assay: Arrhythmia induced by ligation-reperfusion in isolated rat heart
# Method: The isolated rat hearts were ligated by a temporary tightening of the silk ligature around the left main coronary artery to induce myocardial ischemia. Reperfusion was achieved by releasing the tension applying to the ligature to induce arrhythmia. 10µM THP was then administered and the atrial and ventricular electrograms were recorded.
# Similarly, 10µM THP can be effective in inhibiting the cardiac arrhythmia induced in the isolated guinea pig heart subjected to global ischemia followed by reperfusion (Table 1). The structure of coronary arteries between rat and guinea pig are not alike, THP, however, can be effective in inhibiting the arrhythmia induced in the isolated heart subjected to ischemia-reperfusion in both animals.
compound,measurement,setting,value
"COc1cc2c(cc1OC)-c1c(O)c(OC)cc3c1C(C2)N(C)CC3 (single isomer, unassigned; (+)) [THP, (+)-Thaliporphine]",atrial effective refractory period (AERP),AV node conduction; 3µM,90 ms
same,ventricular effective refractory period (VERP),AV node conduction; 3µM,160 ms
same,AV node effective refractory period (AVNERP),AV node conduction; 3µM,170 ms
same,wenckbach cycle length (WCL),AV node conduction; 3µM,210 ms
same,AH interval (conduction in AV node),"AV node conduction; 10µM, isolated perfused heart",not inhibited
same,HV interval,"AV node conduction; 10µM, isolated perfused heart",prolonged slightly
same,SA interval,"AV node conduction; 10µM, isolated perfused heart",remains unaffected
same,atrial effective refractory period (AERP),AV node conduction; 10µM,100 ms
same,ventricular effective refractory period (VERP),AV node conduction; 10µM,170 ms
same,AV node effective refractory period (AVNERP),AV node conduction; 10µM,200 ms
same,wenckbach cycle length (WCL),AV node conduction; 10µM,230 ms
same,atrial effective refractory period (AERP),AV node conduction; 30µM,120 ms
same,ventricular effective refractory period (VERP),AV node conduction; 30µM,190 ms
same,AV node effective refractory period (AVNERP),AV node conduction; 30µM,240 ms
same,wenckbach cycle length (WCL),AV node conduction; 30µM,280 ms
same,Mortality (%),in vivo anesthetized rat; THP 3.5x10^-5 g/kg i.v.,0* %
same,VF Duration,in vivo anesthetized rat; THP 3.5x10^-5 g/kg i.v.,1.2 ± 1.2 s
same,VF Incidence(%),in vivo anesthetized rat; THP 3.5x10^-5 g/kg i.v.,13% and 14* %
same,VT Duration,in vivo anesthetized rat; THP 3.5x10^-5 g/kg i.v.,7.6 ± 3.2 s
same,VT Incidence(%),in vivo anesthetized rat; THP 3.5x10^-5 g/kg i.v.,71%
same,Mortality (%),in vivo anesthetized rat; THP 3.5x10^-6 g/kg i.v.,0%
same,VF Duration,in vivo anesthetized rat; THP 3.5x10^-6 g/kg i.v.,9.2 ± 8.3 s
same,VF Incidence(%),in vivo anesthetized rat; THP 3.5x10^-6 g/kg i.v.,29%
same,VT Duration,in vivo anesthetized rat; THP 3.5x10^-6 g/kg i.v.,14.6 ± 9.1 s
same,VT Incidence(%),in vivo anesthetized rat; THP 3.5x10^-6 g/kg i.v.,57%
same,Mortality (%),in vivo anesthetized rat; THP 3.5x10^-7 g/kg i.v.,43%
same,VF Duration,in vivo anesthetized rat; THP 3.5x10^-7 g/kg i.v.,75.5 ± 15.6 s
same,VF Incidence(%),in vivo anesthetized rat; THP 3.5x10^-7 g/kg i.v.,86%
same,VT Duration,in vivo anesthetized rat; THP 3.5x10^-7 g/kg i.v.,28.6 ± 10.4 s
same,VT Incidence(%),in vivo anesthetized rat; THP 3.5x10^-7 g/kg i.v.,86%
same,effect on polymorphic ventricular tachyrhythmia induced by ischemia-reperfusion,"isolated rat hearts; 10 µM, FIG. 5 (a)",conversion of polymorphic ventricular tachyrhythmia induced by ischemia-reperfusion to normal sinus rhythm
same,IC50,"isolated rat hearts; 0.5 h, isolated rat heart, 30 minutes ligation followed by reperfusion, 3-30µM, read-out: IC50, reversing the cardiac arrhythmia",15.7 µM
